Results from the supplement of paper PMC11061612.

What was measured:
[1] = tested on: Ca9-22 (Head and Neck Carcinoma); experiment: Bliss excess, mean over the matrix (fraction); higher = more synergy
Summary of the method: (§1)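 Cell lines in DMEM/F12 or RPMI with 10% FBS were plated in 1536-well plates, held 24 hours at 37°C, 5% CO2, then given two-drug dose matrices for 72 hours (DMSO typically 0.2%). Viability was read by CellTiter-Glo 2.0 luminescence and scaled as inhibition from 0 (vehicle wells) to 1 (blank wells). Combination Emax is the second-highest inhibition in the matrix; Bliss excess is observed combination effect minus expected EA + EB − EA·EB, EA and EB being single-agent effects.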

[2] = tested on: NB69 (Neuroblastoma); experiment: as above
Summary of the method: as §1

[3] = tested on: HOP-62 (Lung Adenocarcinoma); experiment: as above
Summary of the method: as §1

[4] = tested on: NUGC-3 (Gastric Carcinoma); experiment: as above
Summary of the method: as §1

[5] = tested on: HGC-27 (Gastric Carcinoma); experiment: as above
Summary of the method: as §1

[6] = tested on: PANC-04-03 (Pancreatic Carcinoma); experiment: as above
Summary of the method: as §1

[7] = tested on: YH-13 (Glioblastoma); experiment: as above
Summary of the method: as §1

[8] = tested on: MIA-PaCa-2 (Pancreatic Carcinoma); experiment: as above
Summary of the method: as §1

[9] = tested on: ACHN (Kidney Carcinoma); experiment: as above
Summary of the method: as §1

[10] = tested on: EoL-1-cell (Acute Myeloid Leukemia); experiment: as above
Summary of the method: as §1

[11] = tested on: VA-ES-BJ (Other Solid Carcinomas); experiment: as above
Summary of the method: as §1

[12] = tested on: NEC8 (Other Solid Carcinomas); experiment: as above
Summary of the method: as §1

[13] = tested on: TK10 (Kidney Carcinoma); experiment: as above
Summary of the method: as §1

[14] = tested on: NCI-H358 (Lung Adenocarcinoma); experiment: as above
Summary of the method: as §1

[15] = tested on: Caov-4 (Ovarian Carcinoma); experiment: as above
Summary of the method: as §1

[16] = tested on: KMOE-2 (Acute Myeloid Leukemia); experiment: as above
Summary of the method: as §1

[17] = tested on: SU8686 (Pancreatic Carcinoma); experiment: as above
Summary of the method: as §1

[18] = tested on: TE-1 (Esophageal Squamous Cell Carcinoma); experiment: as above
Summary of the method: as §1

[19] = tested on: PWR-1E (Non-Cancerous); experiment: as above
Summary of the method: as §1

[20] = tested on: SW13 (Other Solid Carcinomas); experiment: combination Emax (second highest fraction inhibited in the dose matrix, 72 h); higher = more inhibition; extreme values may be limits of the assay
Summary of the method: as §1
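Wherever Bliss excess, mean over the matrix is given: after 72 h of two-drug dosing.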

Compound | Bliss excess [1] | Bliss excess [2] | Bliss excess [3] | Bliss excess [4] | Bliss excess [5] | Bliss excess [6] | Bliss excess [7] | Bliss excess [8] | Bliss excess [9] | Bliss excess [10] | Bliss excess [11] | Bliss excess [12] | Bliss excess [13] | Bliss excess [14] | Bliss excess [15] | Bliss excess [16] | Bliss excess [17] | Bliss excess [18] | Bliss excess [19] | combination Emax [20]
Cc1c2c(nn1C)CSCc1cc(n(C)n1)CSc1cc(c3ccccc3c1)OCCCc1c(C(=O)O)n(C)c3c-2c(Cl)ccc13 [AZD5991] + C[C@@H](Nc1cc(F)cc(F)c1)c1cc(C(=O)N(C)C)cc2c(=O)cc(N3CCOCC3)oc12 [AZD8186] (first compound max 1 µM, 7x7, partner max 3 µM) | -0.012 | -0.0207 | -0.0421 | 0.0052 | 0.0246 | -0.0045 | 0.0058 | -0.0095 | 0.0607 | 0.0072 | 0.0068 | 0.008 | -0.0736 | -0.0519 | -0.0121 | -0.0378 | -0.0002 | -0.0186 | -0.0134 | 0.947
Cc1c2c(nn1C)CSCc1cc(n(C)n1)CSc1cc(c3ccccc3c1)OCCCc1c(C(=O)O)n(C)c3c-2c(Cl)ccc13 [AZD5991] + Cc1cc2ncnn2cc1Nc1ncc2c(n1)n(C1CCOCC1)c(=O)n2C [AZD7648] (first compound max 1 µM, 7x7, partner max 10 µM) | 0.0048 | -0.0009 | -0.0758 | -0.0237 | -0.0131 | -0.0242 | -0.091 | -0.0385 | -0.0271 | -0.0018 | -0.0239 | -0.0056 | -0.0327 | -0.0836 | 0.0024 | -0.0085 | -0.0366 | -0.0494 | -0.0363 | 0.861
Cc1c2c(nn1C)CSCc1cc(n(C)n1)CSc1cc(c3ccccc3c1)OCCCc1c(C(=O)O)n(C)c3c-2c(Cl)ccc13 [AZD5991] + Cn1cnc2c(F)c(Nc3ccc(Br)cc3Cl)c(C(=O)NOCCO)cc21 [Selumetinib] (first compound max 1 µM, 7x7, partner max 3 µM) | 0.0185 | 0.0377 | -0.0626 | 0.0106 | 0.033 | 0.0201 | -0.0347 | 0.0197 | 0.0314 | 0.0751 | 0.0207 | 0.0374 | 0.0135 | 0.0531 | 0.0604 | -0.0227 | 0.0084 | 0.019 | -0.0294 | 0.828
C[C@@H]1COCCN1c1cc(C2([S@](C)(=N)=O)CC2)nc(-c2ccnc3[nH]ccc23)n1 [AZD6738] + O=C(c1cc(Cc2n[nH]c(=O)c3ccccc23)ccc1F)N1CCN(C(=O)C2CC2)CC1 [Olaparib] (first compound max 10 µM, 7x7, partner max 10 µM) | -0.042 | 0.045 | 0.0092 | -0.0296 | 0.0231 | 0.0066 | 0.0254 | -0.016 | -0.0791 | 0.0073 | -0.0692 | 0.0254 | -0.0735 | -0.0276 | -0.125 | 0.0413 | -0.0231 | -0.0461 | -0.0632 | 0.451
NC1(C(=O)N[C@@H](CCO)c2ccc(Cl)cc2)CCN(c2ncnc3[nH]ccc23)CC1 [Capivasertib] + CC(=O)c1c(C)c2cnc(Nc3ccc(N4CCNCC4)cn3)nc2n(C2CCCC2)c1=O [Palbociclib] (first compound max 10 µM, 7x7, partner max 10 µM) | 0.0171 | -0.009 | -0.04 | 0.0372 | -0.0085 | -0.0351 | 0.0004 | 0.0767 | 0.003 | -0.0039 | 0.0144 | -0.0104 | -0.0106 | -0.0373 | 0.0152 | -0.0566 | -0.0465 | -0.0276 | -0.017 | 0.261
NC1(C(=O)N[C@@H](CCO)c2ccc(Cl)cc2)CCN(c2ncnc3[nH]ccc23)CC1 [Capivasertib] + CC(C)n1c(=O)n(C)c2cnc3cc(F)c(-c4ccc(OCCCN5CCCCC5)nc4)cc3c21 [AZD1390] (first compound max 10 µM, 7x7, partner max 0.3 µM) | -0.0368 | -0.0787 | -0.0893 | -0.0372 | -0.053 | -0.0997 | -0.0372 | -0.048 | -0.0389 | -0.0173 | -0.0467 | -0.0089 | -0.0798 | -0.0088 | -0.0095 | -0.0666 | -0.0484 | -0.0818 | -0.0341 | 0.35
NC1(C(=O)N[C@@H](CCO)c2ccc(Cl)cc2)CCN(c2ncnc3[nH]ccc23)CC1 [Capivasertib] + CCN(CCO)CCCOc1ccc2c(Nc3cc(CC(=O)Nc4cccc(F)c4)[nH]n3)ncnc2c1 [AZD2811] (first compound max 10 µM, 7x7, partner max 1 µM) | 0.0117 | -0.0339 | 0.0196 | -0.0178 | -0.0167 | -0.0142 | -0.0317 | 0.0031 | -0.0384 | -0.0177 | 0.0367 | -0.0094 | -0.0434 | -0.0521 | 0.026 | -0.0154 | -0.0212 | -0.0347 | -0.0124 | 0.515
NC1(C(=O)N[C@@H](CCO)c2ccc(Cl)cc2)CCN(c2ncnc3[nH]ccc23)CC1 [Capivasertib] + COc1nnc2ccc(N3CCC(c4ccc(OCCN5CCN(C)C(=O)[C@H]5C)cc4)CC3)nn12 [AZD5153] (first compound max 10 µM, 7x7, partner max 1 µM) | -0.0073 | -0.0299 | -0.0633 | 0.0564 | 0.0097 | -0.0242 | 0.0553 | -0.0594 | -0.0094 | -0.0442 | 0.0414 | 0.0363 | -0.0154 | -0.0514 | -0.0146 | -0.0211 | -0.0359 | -0.0169 | 0.0579 | 0.389
NC1(C(=O)N[C@@H](CCO)c2ccc(Cl)cc2)CCN(c2ncnc3[nH]ccc23)CC1 [Capivasertib] + C[C@@H]1COCCN1C2=NC(=NC(=C2)C3(CC3)[S@](=N)(=O)C)C4=C5C=CNC5=NC=C4 [AZD6738] (first compound max 10 µM, 7x7, partner max 10 µM) | -0.0386 | -0.0728 | -0.0695 | -0.0639 | -0.0182 | -0.0322 | -0.0771 | -0.04 | -0.0303 | 0.0272 | -0.0088 | 0.0288 | -0.0604 | -0.0896 | -0.0249 | -0.0336 | -0.032 | -0.0831 | -0.0534 | 0.712
NC1(C(=O)N[C@@H](CCO)c2ccc(Cl)cc2)CCN(c2ncnc3[nH]ccc23)CC1 [Capivasertib] + Cn1cnc2c(F)c(Nc3ccc(Br)cc3Cl)c(C(=O)NOCCO)cc21 [Selumetinib] (first compound max 10 µM, 7x7, partner max 10 µM) | -0.0383 | 0.0278 | -0.0367 | -0.0007 | -0.0414 | 0.0247 | 0.0235 | 0.0259 | 0.0379 | 0.077 | 0.0015 | 0.0013 | 0.0043 | -0.0396 | -0.0293 | 0.0417 | 0.0012 | 0.0059 | -0.0246 | 0.65
COc1cccc2c1C(=O)c1c(O)c3c(c(O)c1C2=O)C[C@@](O)(C(=O)CO)C[C@@H]3O[C@H]1C[C@H](N)[C@H](O)[C@H](C)O1 [Doxorubicin] + Cc1cc2ncnn2cc1Nc1ncc2c(n1)n(C1CCOCC1)c(=O)n2C [AZD7648] (first compound max 1 µM, 7x7, partner max 10 µM) | 0.0703 | 0.0516 | 0.0399 | 0.0285 | 0.0171 | -0.0394 | 0.0443 | 0.0167 | 0.068 | 0.155 | 0.0383 | 0.0952 | 0.0138 | 0.0186 | 0.056 | 0.0867 | -0.0262 | -0.022 | 0.12 | 0.874
CS(=O)(=O)CCNCc1ccc(-c2ccc3ncnc(Nc4ccc(OCc5cccc(F)c5)c(Cl)c4)c3c2)o1 [Lapatinib] + C[C@@H](Oc1cc(-c2cnn(C3CCNCC3)c2)cnc1N)c1c(Cl)ccc(F)c1Cl [Crizotinib] (first compound max 10 µM, 7x7, partner max 10 µM) | -0.0383 | -0.0592 | -0.0466 | -0.142 | -0.0903 | -0.0586 | -0.0388 | -0.0517 | -0.0558 | -0.0547 | 0.005 | -0.0234 | -0.0655 | -0.0522 | -0.0451 | 0.0174 | -0.0299 | 0.0266 | -0.0184 | 0.9
CC(=O)c1c(C)c2cnc(Nc3ccc(N4CCNCC4)cn3)nc2n(C2CCCC2)c1=O [Palbociclib] + CC1(C)CCC(CN2CCN(c3ccc(C(=O)NS(=O)(=O)c4ccc(NCC5CCOCC5)c([N+](=O)[O-])c4)c(Oc4cnc5[nH]ccc5c4)c3)CC2)=C(c2ccc(Cl)cc2)C1 [Venetoclax] (first compound max 10 µM, 7x7, partner max 1 µM) | -0.0044 | 0.0084 | -0.0132 | -0.0178 | 0.046 | -0.0528 | 0.0451 | -0.0392 | 0.0329 | 0.0515 | 0.0104 | -0.0265 | -0.0312 | -0.0862 | -0.057 | -0.015 | -0.0391 | -0.0385 | -0.0229 | 0.24
CC(=O)c1c(C)c2cnc(Nc3ccc(N4CCNCC4)cn3)nc2n(C2CCCC2)c1=O [Palbociclib] + Cc1c2c(nn1C)CSCc1cc(n(C)n1)CSc1cc(c3ccccc3c1)OCCCc1c(C(=O)O)n(C)c3c-2c(Cl)ccc13 [AZD5991] (first compound max 10 µM, 7x7, partner max 1 µM) | -0.0032 | 0.0058 | -0.0573 | -0.134 | -0.0219 | -0.0464 | -0.003 | 0.0265 | -0.0106 | 0.0132 | -0.0101 | 0.0111 | -0.0228 | -0.0249 | -0.0133 | -0.0002 | -0.0405 | -0.0182 | 0.0128 | 0.838
